Earlier results, collected in US7417156B2, “Orally active, antimalarial, anticancer, artemisinin-derived trioxane dimers” (Johns Hopkins University, priority 2002, dated 2008).

Settings: in vivo; cited from earlier work

For `C[C@H]1[C@@H](O)O[C@@H]2O[C@@]3(C)CC[C@H]4[C@H](C)CC[C@@H]1[C@@]24OO3` [Compound 31, dihydroartemisinin], the half-life in plasma is listed as “less than two hours”.
